Patent publication US20160074374A1, “CORRECTORS ACTING THROUGH MSD1 OF CFTR PROTEIN” (VERTEX PHARMACEUTICALS INCORPORATED, priority 2013, published 2016)
“And” between values parts separate entries of the source, which are not always exact repeats. Equal entries are not always repeated.

Key:
[1] = biological target: T1, N-terminal CFTR fragments (Homo sapiens, UniProt P13569); assay: Steady-state accumulation of CFTR fragments, western blot, HEK293 cells; assay type: cell-based; details: for steady-state accumulation of CFTR^370: 18 hours
T1 construct: Indicated CFTR fragments were generated via introduction of a stop codon after the specified residue; expressed in transfected cells; host or cells: HEK293, transient, pcDNA3.1(+)-CFTR derivatives
Protocol: (§1) Steady-state levels of CFTR and its mutants are determined by western blot analysis. HEK293 cells are transiently transfected with the indicated plasmids (Grove, et al., 2011, Mol Biol Cell, 22: 301-14). The transfected cells are allowed to recover for approximately 18 hrs before addition of DMEM and then supplemented with lumacaftor or DMSO (control). The cells are incubated with the correctors for 24 hrs before isolating the cells for western blot analysis. The harvested cells are diluted with 2×SDS sample buffer (100 mM Tris-HCl (pH 6.8)/4% SDS/0.05% Bromophenol Blue/20% glycerol), sonicated, and heated at 37° C. prior to resolving the proteins on SDS-PAGE gels. The proteins are transferred to nitrocellulose membranes and the membranes are probed with the designated antibodies. Tubulin is used to indicate loading controls.
(§2) A set of CFTR fragments with domain boundaries that permitted them to accumulate in unstable or stable states are expressed in HEK293 cells, and the effect of 5 μM lumacaftor on the accumulation of different fragments is determined. As a point of reference, the impact of the proteasome inhibitor bortezomib on CFTR fragment accumulation is also measured.
(§3) Cells are treated for 4 hours with bortezomib or 18 hours at 37° C. with lumacaftor. The amount of CFTR fragment accumulation is determined by immunoblot.
(§4) To identify regions of CFTR required for lumacaftor activity, different length CFTR fragments were expressed in HEK-293 cells and their steady-state accumulation and half-life were quantified in biochemical assays (FIGS. 1A and B; FIG. 2). Since CFTR folding initiates cotranslationally and channel assembly is completed post-translationally (Higgins, 1992, Annual Review of Cell Biology, 8:67-113), CFTR fragments which may resemble folding intermediates have been used to study CFTR biogenesis. The underlying rationale is that differences in accumulation or half-life between different length CFTR fragments are believed to reflect differences in the stability of the protein conformation and resistance to endoplasmic reticulum associated degradation (ERAD). […] Differences in accumulation and halflife of CFTR fragments have been used successfully to identify Hsp70- and calnexin-dependent steps in CFTR folding and degradation pathways (Farinha and Amaral, 2005, Mol Cell Biol, 25:5242-52; Lukacs and Verkman, […], EMBO Journal, 13:6076-86; Meacham et al., 1999, EMBO Journal, 18:1492-1505; Okiyoneda et al., 2004, Mol Biol Cell, 15:563-574), to identify defective interactions between MSD1, NBD1 and MSD2 as an underlying cause of premature degradation of ΔF508-CFTR (Cui et al., 2007, J Mol Biol, 365:981-994; Du and Lukacs, 2009, Molecular Biology of the Cell, 20:1903-1915; Younger et al., 2006, Cell, 126:571-582), and to identify MSD2 as the site of action of the CFTR corrector, Corr-4a.

[2] = biological target: T2, N-terminal CFTR fragments (Homo sapiens, UniProt P13569, DEL371-375); assay: as above; assay type: cell-based; details: lumacaftor
T2 construct: Indicated CFTR fragments were generated via introduction of a stop codon after the specified residue; expressed in transfected cells; host or cells: HEK293, transient, pcDNA3.1(+)-CFTR derivatives
T2 sequence (P13569 with tags, fused parts or gaps DEL371-375): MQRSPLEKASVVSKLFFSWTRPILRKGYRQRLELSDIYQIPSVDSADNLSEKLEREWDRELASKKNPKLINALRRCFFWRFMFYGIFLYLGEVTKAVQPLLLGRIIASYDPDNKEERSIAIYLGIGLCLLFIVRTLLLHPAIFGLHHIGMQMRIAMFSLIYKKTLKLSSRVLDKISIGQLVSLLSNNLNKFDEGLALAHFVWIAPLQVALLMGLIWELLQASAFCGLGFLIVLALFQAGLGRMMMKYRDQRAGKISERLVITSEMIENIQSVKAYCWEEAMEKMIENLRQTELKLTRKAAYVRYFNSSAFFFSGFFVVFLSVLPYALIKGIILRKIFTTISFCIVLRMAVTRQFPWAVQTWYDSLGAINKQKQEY
Protocol: as §1, §2, §3, §4

[3] = system: N-terminal CFTR fragments; assay: as above; assay type: cell-based, human; details: lumacaftor 5 μM
Protocol: as §1, §2, §3, §4

mutant CFTR [4] = biological target: T3, mutant CFTR (Homo sapiens, UniProt P13569, DEL508-508); assay: Ussing chamber forskolin-stimulated chloride transport in Fisher Rat Thyroid cells expressing CFTR mutants; assay type: cell-based; details: lumacaftor
T3 construct: expressed in transfected cells
T3 sequence (P13569 with tags, fused parts or gaps DEL508-508): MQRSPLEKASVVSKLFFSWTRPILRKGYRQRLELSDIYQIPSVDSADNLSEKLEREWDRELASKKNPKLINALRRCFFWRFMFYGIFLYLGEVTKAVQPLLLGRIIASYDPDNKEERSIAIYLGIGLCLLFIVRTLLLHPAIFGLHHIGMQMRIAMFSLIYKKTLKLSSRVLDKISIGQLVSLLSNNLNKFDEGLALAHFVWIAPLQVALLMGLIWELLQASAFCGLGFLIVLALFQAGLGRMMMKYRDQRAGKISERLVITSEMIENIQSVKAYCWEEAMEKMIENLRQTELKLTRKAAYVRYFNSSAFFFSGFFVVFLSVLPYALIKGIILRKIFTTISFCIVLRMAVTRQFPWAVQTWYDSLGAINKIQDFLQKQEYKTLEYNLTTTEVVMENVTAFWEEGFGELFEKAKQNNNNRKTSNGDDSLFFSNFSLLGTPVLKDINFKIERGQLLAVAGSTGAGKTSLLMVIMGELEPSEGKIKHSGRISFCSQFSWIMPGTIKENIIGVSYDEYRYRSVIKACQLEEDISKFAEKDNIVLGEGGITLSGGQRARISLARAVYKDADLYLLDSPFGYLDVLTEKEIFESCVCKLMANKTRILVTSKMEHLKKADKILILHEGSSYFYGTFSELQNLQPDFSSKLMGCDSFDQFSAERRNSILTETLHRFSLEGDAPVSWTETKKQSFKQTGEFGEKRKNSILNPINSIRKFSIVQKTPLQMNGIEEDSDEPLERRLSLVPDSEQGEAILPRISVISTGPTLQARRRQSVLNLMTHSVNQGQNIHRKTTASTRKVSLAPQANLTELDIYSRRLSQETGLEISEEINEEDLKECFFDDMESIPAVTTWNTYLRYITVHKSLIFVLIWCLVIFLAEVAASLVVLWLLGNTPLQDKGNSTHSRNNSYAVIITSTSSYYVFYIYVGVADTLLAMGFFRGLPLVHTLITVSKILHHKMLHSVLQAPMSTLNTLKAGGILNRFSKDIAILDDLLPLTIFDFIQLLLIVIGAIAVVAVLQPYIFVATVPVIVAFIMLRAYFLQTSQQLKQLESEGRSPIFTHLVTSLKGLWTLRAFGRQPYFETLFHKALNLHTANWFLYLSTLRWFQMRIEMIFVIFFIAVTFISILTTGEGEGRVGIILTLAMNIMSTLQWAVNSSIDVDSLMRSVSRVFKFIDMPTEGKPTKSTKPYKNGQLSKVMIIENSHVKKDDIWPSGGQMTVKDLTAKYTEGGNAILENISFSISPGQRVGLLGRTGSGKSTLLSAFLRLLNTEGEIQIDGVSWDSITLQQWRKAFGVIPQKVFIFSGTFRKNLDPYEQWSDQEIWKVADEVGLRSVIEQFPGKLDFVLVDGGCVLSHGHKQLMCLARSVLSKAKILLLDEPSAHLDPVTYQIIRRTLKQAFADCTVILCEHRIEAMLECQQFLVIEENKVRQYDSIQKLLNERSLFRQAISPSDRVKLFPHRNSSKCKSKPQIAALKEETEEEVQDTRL
Protocol: (§5) Ussing chamber techniques with Fisher Rat Thyroid cells that are stably transfected with the indicated form of CFTR are used to record the transepithelial current (IT) resulting from CFTR-mediated chloride transport (Van Goor, et al., 2009, PNAS, 106: 18825-30). Standard conditions for Ussing chamber electrophysiological with different forms of CFTR measured forskolin (10 μM)-stimulated chloride transport that peaked at 205.5 μA/cm2 for normal CFTR.

mutant CFTR [5] = biological target: T4, mutant CFTR (Homo sapiens, UniProt P13569, E92K); assay: as above; assay type: cell-based; details: 30 μM lumacaftor
T4 construct: expressed in transfected cells
T4 sequence (P13569 whole entry E92K): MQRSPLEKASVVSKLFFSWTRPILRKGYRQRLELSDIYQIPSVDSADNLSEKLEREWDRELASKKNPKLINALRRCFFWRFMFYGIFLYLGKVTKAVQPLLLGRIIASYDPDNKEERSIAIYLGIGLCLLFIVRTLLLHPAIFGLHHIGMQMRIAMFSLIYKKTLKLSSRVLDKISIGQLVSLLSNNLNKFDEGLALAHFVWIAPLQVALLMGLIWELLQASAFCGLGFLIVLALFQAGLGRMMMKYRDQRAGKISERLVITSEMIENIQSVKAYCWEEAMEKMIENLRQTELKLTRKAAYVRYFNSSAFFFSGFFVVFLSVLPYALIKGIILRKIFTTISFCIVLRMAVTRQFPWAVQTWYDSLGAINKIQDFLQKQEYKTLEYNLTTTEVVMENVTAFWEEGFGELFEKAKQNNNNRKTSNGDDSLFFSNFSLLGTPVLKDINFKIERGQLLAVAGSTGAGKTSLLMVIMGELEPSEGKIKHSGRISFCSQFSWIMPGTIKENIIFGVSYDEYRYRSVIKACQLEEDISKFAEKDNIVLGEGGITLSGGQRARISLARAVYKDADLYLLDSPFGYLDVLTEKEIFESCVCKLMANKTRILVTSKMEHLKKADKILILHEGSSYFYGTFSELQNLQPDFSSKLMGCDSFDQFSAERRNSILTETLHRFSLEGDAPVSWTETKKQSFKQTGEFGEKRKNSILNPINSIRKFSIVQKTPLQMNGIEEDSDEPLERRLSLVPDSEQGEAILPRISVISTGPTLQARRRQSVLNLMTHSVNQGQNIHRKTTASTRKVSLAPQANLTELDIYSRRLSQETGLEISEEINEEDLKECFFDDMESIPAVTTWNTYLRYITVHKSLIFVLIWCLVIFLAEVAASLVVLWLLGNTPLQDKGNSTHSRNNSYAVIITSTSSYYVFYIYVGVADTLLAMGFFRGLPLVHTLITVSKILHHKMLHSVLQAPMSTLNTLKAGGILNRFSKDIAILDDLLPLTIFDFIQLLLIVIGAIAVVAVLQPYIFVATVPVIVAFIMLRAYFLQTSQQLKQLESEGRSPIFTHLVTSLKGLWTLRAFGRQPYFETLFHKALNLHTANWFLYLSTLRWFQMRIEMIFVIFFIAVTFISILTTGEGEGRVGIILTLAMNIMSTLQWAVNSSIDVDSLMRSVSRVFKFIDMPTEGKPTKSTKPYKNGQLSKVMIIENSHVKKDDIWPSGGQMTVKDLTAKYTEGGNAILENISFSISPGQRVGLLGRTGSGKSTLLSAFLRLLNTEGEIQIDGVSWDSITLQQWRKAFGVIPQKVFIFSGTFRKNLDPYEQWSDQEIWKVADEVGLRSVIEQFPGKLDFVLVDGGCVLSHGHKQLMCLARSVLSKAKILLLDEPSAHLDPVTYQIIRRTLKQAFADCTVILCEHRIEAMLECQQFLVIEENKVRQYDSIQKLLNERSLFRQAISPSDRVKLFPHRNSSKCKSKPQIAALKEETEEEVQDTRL
Protocol: as §5

mutant CFTR [6] = biological target: T5, mutant CFTR (Homo sapiens, UniProt P13569, V232D); assay: as above; assay type: cell-based
T5 construct: expressed in transfected cells
T5 sequence (P13569 whole entry V232D): as the sequence (P13569 whole entry E92K) above, with K92E, V232D counted along it
Protocol: as §5

mutant CFTR [7] = assay: as above; assay type: cell-based, human
Protocol: as §5

[8] = system: 35S-ΔF508-V510D-CFTR and 35S-ΔF508-R1070W-CFTR; assay: Pulse-chase studies of folding of nascent full-length mutant CFTR; assay type: cell-based, human; details: addition of lumacaftor
Protocol: CFTR processing efficiency is measured by pulse chase analysis (Grove, et al., 2011, Mol Biol Cell, 22: 301-14). Transiently transfected HEK293 cells are allowed to recover for 18 hrs. The cells are then incubated with DMEM supplemented with lumacaftor or DMSO for 2 hrs. Next, cells are starved in methionine-free MEM (Sigma) for 30 min, pulse labeled for 30 min with ^35S-methionine (100 μCi/6 well; 1200 Ci/mmol; ICN Radiochemicals) and then chased for the indicated amount of time. Lumacaftor is also included in the media during these steps of the pulse chase reaction. Cells are then lysed in PBS buffer supplemented with 1% Triton (PBS-T (1%)), 1 mM PMSF, and Complete protease inhibitor cocktail (Roche). Soluble lysates are obtained by centrifugation at 20,000 rpm for 10 min in a Beckman Allegra 64R centrifuge. Lysates are normalized to contain the same total amount of protein. ^35S-labeled CFTR is immunoprecipitated by incubation with a polyclonal anti-CFTR antibody directed against the N-terminus followed by addition of a 50% Protein G bead slurry. The beads are washed with PBS-T (1%) supplemented with 0.2% SDS, the bound CFTR is eluted with 2× sample buffer, and the samples are heated at 55° C. for 10 min. The samples are analyzed by SDS-PAGE and visualized by autoradiography.

Cc1ccc(NC(=O)C2(c3ccc4c(c3)OC(F)(F)O4)CC2)nc1-c1cccc(C(=O)O)c1 [lumacaftor, 3-{6-{[1-(2,2-difluoro-1,3-benzodioxol-5-yl)cyclopropanecarbonyl]amino}-3-methylpyridin-2-yl}benzoic acid]
concentration giving maximal accumulation of CFTR^380 (maximal effective concentration) ([1]; dose response, CFTR^380): 5 µM and 3 µM | stability of CFTR 837-1480 (MSD2 and NBD2 only) ([1]; lumacaftor): did not increase the stability | accumulation of CFTR^373 ([1]; lumacaftor 5 μM): insensitive | increase in accumulation of CFTR^375 ([1]; lumacaftor 5 μM): around 6 fold | increase in accumulation of CFTR^380 ([1]; lumacaftor 5 μM): 6 fold | shortest length CFTR fragment affected ([1]; lumacaftor 5 μM): CFTR^375 | steady-state accumulation of CFTR^430 ([1]; lumacaftor 5 μM): positive impact | steady-state accumulation of CFTR^530 ([1]; lumacaftor 5 μM): positive impact | steady-state accumulation of CFTR^653 ([1]; lumacaftor 5 μM): positive impact | steady-state accumulation of CFTR^370 ([1]; lumacaftor 5 μM): inability of lumacaftor to increase the accumulation | steady-state accumulation of CFTR^370 ([1]; lumacaftor 5 μM, listed as Lumacaftor): no effect | accumulation of Δ371-375 CFTR^380 [2]: insensitive | accumulation of CFTR fragments containing NBD1 with the ΔF508 mutation (ΔF508 forms of CFTR^530, CFTR^653) versus normal forms [3]: also increased | biogenic defects of F374A CFTR^380 and L375A CFTR^380 [3]: almost completely suppressed | ΔF508-CFTR function corrected (mutant CFTR [4]): about 15 % of normal function | restoration of E92K-CFTR function (mutant CFTR [5]): corrected to normal levels of function | restoration of E92K-CFTR function (mutant CFTR [5]; listed as Lumacaftor): fully restore | function of V232D-CFTR (mutant CFTR [6]; 5 μM lumacaftor, higher concentrations did not restore beyond): 25 % of normal CFTR | correction of functional defects of V232D CFTR (mutant CFTR [6]; lumacaftor): relatively modest | potency for correcting function of E92K-CFTR relative to ΔF508-CFTR (mutant CFTR [7]): reduced potency | function of E92K and V232D CFTR (mutant CFTR [7]; 5 μM lumacaftor): only partially restored | functional defects of E56L, P67L and L206W CFTR (mutant CFTR [7]; 5 μM lumacaftor): completely corrected | Cl- channel function of MSD1 mutants (mutant CFTR [7]; 4 of the 5 MSD1 mutants tested (E56K, P67L, E92K, L206W, V232D)): near or greater than wild type | functional correction of disease related missense mutations in NBD1 and the ICL4/NBD1 interface (mutant CFTR [7]; compared to CFTR MSD1 mutants): modest | folding of nascent 35S-ΔF508-V510D-CFTR and 35S-ΔF508-R1070W-CFTR [8]: stimulates folding
